Laboratory results published in ChEMBL document CHEMBL3860033, “Recent advances of cytotoxic chalconoids targeting tubulin polymerization: Synthesis and biological activity” (Eur J Med Chem, 2016).
Values belong to the compound of their own block, whether it stands above or below them.

What was measured:
[1] = Cytotoxicity against human Capan1 cells assessed as decrease in cell viability after 24 to 48 hrs by CCK8 assay; assay type: functional, cell-based; details: CAPAN-1
[2] = Cytotoxicity against human K562 cells assessed as growth inhibition after 5 days by MTT assay; assay type: functional, cell-based; details: K562, 120 h
Ovis aries = organism: Ovis aries; experiment: Binding affinity to lamb brain tubulin using ultracentrifuge by absorbance assay
[3] = Cytotoxicity against human NCI60 cells after 48 hrs by SRB assay; assay type: functional; details: NCI60, 48 h
[4] = Cytotoxicity against human SW620 cells assessed as decrease in cell viability after 24 to 48 hrs by CCK8 assay; assay type: functional, cell-based; details: SW-620
[5] = Inhibition of porcine brain tubulin polymerization by spectrophotometric method; set-up: species or system Sus scrofa
[6] = Displacement of [3H]-colchicine from porcine tubulin; set-up: species or system Sus scrofa
[7] = Cytotoxicity against human A549 cells assessed as decrease in cell viability after 72 hrs by MTT assay; assay type: functional, cell-based; details: A549, 72 h
[8] = Cytotoxicity against human HCT116 cells assessed as decrease in cell viability after 72 hrs by MTT assay; assay type: functional, cell-based; details: HCT-116, 72 h
[9] = Cytotoxicity against human HeLa cells assessed as decrease in cell viability after 72 hrs by MTT assay; assay type: functional, cell-based

Compound: COc1ccc(C(=O)/C=C/c2cccc3ccccc23)c(O)c1
- IC50 [1]: 5.2 µM

Compound: COc1ccc(C=C(C)C(=O)c2cc(OC)c(OC)c(OC)c2)cc1O
- IC50 [2]: 0.0002 µM

- Kapp (Ovis aries): 2 ×10⁵ /M
Compound: COc1cc(OC)c(C(=O)/C=C/c2cn(C)c3ccccc23)c(OC)c1

Compound: COc1cc(C(=O)C2OC2c2cc(OC)c(OC)c(OC)c2)cc(OC)c1OC (stereo not given)
- GI50 [3]: 14.1 µM

Compound: COc1cc(OC)c(/C=C/C(=O)c2c(O)ccc3ccccc23)c(OC)c1
- IC50 [4]: 14.5 µM

- IC50 [5]: 22 µM
- IC50 [6]: 60 µM
Compound: COc1ccc(/C=C2\Oc3c(cc(OC)c(OC)c3OC)C2=O)cc1O

Compound: CCOc1cc2c(cc1C(=O)/C=C/c1ccc(OC)c(O)c1)OCS2
- IC50 [7]: 0.001 to 0.009 µM
- IC50 [8]: 0.001 to 0.009 µM
- IC50 [9]: 0.001 to 0.009 µM
